ChEMBL document CHEMBL1157533 (J Med Chem, 2008)

Tests used:
[1] = biological target: Beta-1 adrenergic receptor (Homo sapiens, UniProt P08588); test: Agonist activity at human recombinant beta-1 adrenergic receptor expressed in CHO cells assessed as cAMP accumulation by enzyme immuno assay; type: functional, cell-based
[2] = biological target: Beta-3 adrenergic receptor (Homo sapiens, UniProt P13945); test: Agonist activity at human recombinant beta3 adrenergic receptor expressed in CHO cells assessed as cAMP accumulation by enzyme immuno assay; type: functional, cell-based
[3] = Protein binding in Beagle dog serum; type: ADME, cell-free, Canis lupus familiaris; conditions: read-out: PPB (converted)
[4] = biological target: Beta-2 adrenergic receptor (Homo sapiens, UniProt P07550); test: Agonist activity at human recombinant beta2 adrenergic receptor expressed in CHO cells assessed as cAMP accumulation by enzyme immuno assay; type: functional, cell-based
[5] = Terminal half life in Beagle dog at 0.1 mg/kg, iv by cassette assay; type: ADME, organism-based, Canis lupus familiaris; design: dose 0.1 mg/kg, route intravenous; conditions: in vivo, read-out: beta t1/2 (converted)
[6] = Volume of distribution at steady state in Beagle dog at 0.1 mg/kg, iv by cassette assay; type: ADME, organism-based, Canis lupus familiaris; design: dose 0.1 mg/kg, route intravenous; conditions: in vivo, read-out: Vdss
[7] = AUC (0 to 24 hrs) in Beagle dog at 0.1 mg/kg, iv by cassette assay; type: ADME, organism-based, Canis lupus familiaris; design: time < 24 hr, dose 0.1 mg/kg, route intravenous; conditions: plasma
[8] = Total clearance in Beagle dog at 0.1 mg/kg, iv by cassette assay; type: ADME, organism-based, Canis lupus familiaris; design: dose 0.1 mg/kg, route intravenous; conditions: in vivo
[9] = Bioavailability in Beagle dog at 0.1 mg/kg, po by cassette assay; type: ADME, organism-based, Canis lupus familiaris; conditions: in vivo
[10] = Metabolic stability assessed as intrinsic clearance in dog liver microsome in presence of NADPH-generating system; type: ADME, Canis lupus familiaris; conditions: liver microsomes
[11] = Bioavailability in rat at 1.0 mg/kg, po; type: ADME, organism-based; conditions: in vivo
[12] = Cmax in rat at 1.0 mg/kg, po; type: ADME, organism-based; design: dose 1 mg/kg, route oral; conditions: in vivo
[13] = AUC (0 to 24 hrs) in rat at 1.0 mg/kg, po; type: ADME, organism-based; design: time < 24 hr, dose 1 mg/kg, route oral; conditions: plasma
[14] = Terminal half life in rat plasma at 1.0 mg/kg, iv; type: ADME, organism-based; design: dose 1 mg/kg, route intravenous; conditions: read-out: beta t1/2 (converted)
[15] = Total clearance in rat at 1.0 mg/kg, iv; type: ADME, organism-based; design: dose 1 mg/kg, route intravenous; conditions: in vivo
[16] = Cmax in dog at 0.1 mg/kg, po; type: ADME, organism-based, Canis lupus familiaris; design: dose 0.1 mg/kg, route oral; conditions: in vivo
[17] = Bioavailability in dog at 0.1 mg/kg, po; type: ADME, organism-based, Canis lupus familiaris; conditions: in vivo
[18] = Terminal half life in dog at 0.1 mg/kg, iv; type: ADME, organism-based, Canis lupus familiaris; design: dose 0.1 mg/kg, route intravenous; conditions: in vivo, read-out: beta t1/2 (converted)
[19] = Total clearance in dog at 0.1 mg/kg, iv; type: ADME, organism-based, Canis lupus familiaris; design: dose 0.1 mg/kg, route intravenous; conditions: in vivo
[20] = AUC (0 to 24 hrs) in dog at 0.1 mg/kg, po; type: ADME, organism-based, Canis lupus familiaris; design: time < 24 hr, dose 0.1 mg/kg, route oral; conditions: plasma
[21] = AUC (0 to 2 hrs) in Beagle dog at 0.1 mg/kg, po by cassette assay; type: ADME, organism-based, Canis lupus familiaris; design: time < 2 hr, dose 0.1 mg/kg, route oral; conditions: plasma

Beta-3 adrenergic receptor, sequence (P13945 whole entry): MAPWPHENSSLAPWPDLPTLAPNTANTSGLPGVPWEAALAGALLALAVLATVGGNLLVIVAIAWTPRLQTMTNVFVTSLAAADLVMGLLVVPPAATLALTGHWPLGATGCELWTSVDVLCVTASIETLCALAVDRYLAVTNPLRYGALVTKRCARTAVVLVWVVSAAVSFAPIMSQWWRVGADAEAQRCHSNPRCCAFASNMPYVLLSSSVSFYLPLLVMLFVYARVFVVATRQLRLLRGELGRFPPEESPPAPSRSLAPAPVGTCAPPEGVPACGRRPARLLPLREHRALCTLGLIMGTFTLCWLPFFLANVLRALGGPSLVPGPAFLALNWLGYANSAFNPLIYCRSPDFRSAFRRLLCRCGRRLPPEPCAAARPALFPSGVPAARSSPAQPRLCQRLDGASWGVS
Beta-2 adrenergic receptor, sequence (P07550 whole entry): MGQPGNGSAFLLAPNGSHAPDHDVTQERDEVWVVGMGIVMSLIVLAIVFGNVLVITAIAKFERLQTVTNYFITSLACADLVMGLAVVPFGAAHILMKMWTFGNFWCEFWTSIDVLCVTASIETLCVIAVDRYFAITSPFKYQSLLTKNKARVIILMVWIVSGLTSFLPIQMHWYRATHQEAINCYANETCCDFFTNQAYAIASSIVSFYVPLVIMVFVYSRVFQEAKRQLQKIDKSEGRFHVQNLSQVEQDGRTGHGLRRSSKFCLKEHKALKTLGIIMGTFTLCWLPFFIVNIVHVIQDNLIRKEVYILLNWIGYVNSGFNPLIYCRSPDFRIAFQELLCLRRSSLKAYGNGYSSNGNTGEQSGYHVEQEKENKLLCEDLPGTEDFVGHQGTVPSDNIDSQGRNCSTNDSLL
Beta-1 adrenergic receptor, sequence (P08588 whole entry): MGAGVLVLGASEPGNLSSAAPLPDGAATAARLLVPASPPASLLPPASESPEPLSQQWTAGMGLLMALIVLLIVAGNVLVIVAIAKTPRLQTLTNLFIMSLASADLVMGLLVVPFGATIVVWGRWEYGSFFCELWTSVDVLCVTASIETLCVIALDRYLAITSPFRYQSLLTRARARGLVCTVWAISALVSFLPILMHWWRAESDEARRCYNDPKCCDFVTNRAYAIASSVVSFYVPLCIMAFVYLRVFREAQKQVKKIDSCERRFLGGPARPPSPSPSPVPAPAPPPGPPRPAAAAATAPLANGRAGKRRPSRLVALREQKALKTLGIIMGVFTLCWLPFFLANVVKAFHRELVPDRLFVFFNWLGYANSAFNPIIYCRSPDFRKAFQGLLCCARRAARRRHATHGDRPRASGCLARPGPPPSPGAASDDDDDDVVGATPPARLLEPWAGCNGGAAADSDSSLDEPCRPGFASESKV

| Compound | EC50 [1] | EC50 [2] | further results |
| --- | --- | --- | --- |
| O=C(O)c1ccc(-c2ccc(OCCNC[C@H](O)c3ccccc3)cc2)cc1OC1CCCCC1 | 91 nM | 0.16 nM |  |
| CC(C)Oc1cc(-c2ccc(CCN[C@@H](C)[C@H](O)c3ccc(O)cc3)cc2)ccc1C(=O)O | 500 nM | 0.14 nM |  |
| COc1cc(-c2ccc(C[C@@H](C)NC[C@H](O)c3ccccc3)cc2)ccc1C(=O)O | 83 nM | 0.79 nM |  |
| CC(C)Oc1cc(-c2ccc(CCNC[C@H](O)c3ccccc3)cc2)ccc1C(=O)O |  |  | fraction unbound [3]: 0.14 |
| CC(C)Oc1cc(-c2ccc(OCCNC[C@H](O)c3ccccc3)cc2)ccc1C(=O)O | 510 nM | 2.4 nM |  |
| CC(C)Oc1cc(-c2ccc(C[C@@H](C)NC[C@H](O)c3cccnc3)cc2)ccc1C(=O)O | 80 nM | 0.099 nM | EC50 [4]: > 1000 nM |
| C[C@H](Cc1ccc(-c2ccc(C(=O)O)c(OC3CCCCC3)c2)cc1)NC[C@H](O)c1cccnc1 | 24 nM | 0.069 nM |  |
| CC(C)Oc1cc(-c2ccc(C[C@H](CO)NC[C@H](O)c3ccccc3)cc2)ccc1C(=O)O | > 1000 nM | 7.4 nM |  |
| CC(C)COc1cc(-c2ccc(OCCNC[C@H](O)c3ccccc3)cc2)ccc1C(=O)O | 400 nM | 0.55 nM |  |
| CC(C)Oc1cc(-c2ccc(CCNC[C@H](O)c3ccc(O)c(NS(C)(=O)=O)c3)cc2)ccc1C(=O)O | 150 nM | 0.26 nM |  |
| CC(C)Cc1cc(-c2ccc(CCN[C@@H](C)[C@H](O)c3ccccc3)cc2)ccc1C(=O)O | 300 nM | 0.14 nM |  |
| CC(C)COc1cc(-c2ccc(OCCNC[C@H](O)c3cccc(Cl)c3)cc2)ccc1C(=O)O | 110 nM | 0.32 nM |  |
| C[C@H](Cc1ccc(-c2ccc(C(=O)O)c(OC3CCCCC3)c2)cc1)NC[C@H](O)c1ccccc1 | 28 nM | 0.042 nM | half-life [5]: 0.35 h; Vd [6]: 1.13 L/kg; AUC(0-t) at 24 h [7]: 24.3 ng·h/mL; clearance [8]: 68.9 mL/min/kg; bioavailability [9]: 0%; CLint scaled [10]: < 0.1 mL/min/kg |
| C[C@H](Cc1ccc(-c2ccc(C(=O)O)cc2)cc1)NC[C@H](O)c1cccnc1 | 75 nM | 0.49 nM | EC50 [4]: > 1000 nM; bioavailability [11]: 25.2%; Cmax [12]: 22 ng/mL; AUC(0-t) at 24 h [13]: 103 ng·h/mL; half-life [14]: 1.91 h; clearance [15]: 34.3 mL/min/kg; Cmax [16]: 30.5 ng/mL; bioavailability [17]: 59.7%; half-life [18]: 6.4 h; clearance [19]: 4.4 mL/min/kg; AUC(0-t) at 24 h [20]: 207 ng·h/mL |
| CC(C)Oc1cc(-c2ccc(CCNC[C@H](O)c3ccc(N)nc3)cc2)ccc1C(=O)O | 130 nM | 0.19 nM | EC50 [4]: > 10000 nM |
| CC(C)Oc1cc(-c2ccc(CCNC[C@H](O)c3cccc(NS(C)(=O)=O)c3)cc2)ccc1C(=O)O | > 1000 nM | 30 nM |  |
| CCCOc1cc(-c2ccc(CCCNC[C@H](O)c3cccc(Cl)c3)cc2)ccc1C(=O)O | 180 nM | 0.7 nM |  |
| Nc1ccc([C@@H](O)CNCCc2ccc(-c3ccc(C(=O)O)c(OC4CCCCC4)c3)cc2)cn1 | 39 nM | 0.035 nM | EC50 [4]: 1100 nM |
| CC(C)Oc1cc(-c2ccc(CCNC[C@H](O)c3cccc(F)c3)cc2)ccc1C(=O)O | 320 nM | 2.1 nM |  |

| Compound | EC50 [1] | EC50 [2] | further results |
| --- | --- | --- | --- |
| CCCOc1cc(-c2ccc(CCN[C@@H](C)[C@H](O)c3ccccc3)cc2)ccc1C(=O)O | 690 nM | 0.43 nM | EC50 [4]: > 10000 nM |
| CC(C)Oc1cc(-c2ccc(CCNC[C@H](O)c3cccc(N)c3)cc2)ccc1C(=O)O | > 1000 nM | 8.1 nM |  |
| CC(C)Oc1cc(-c2ccc(OCCNC[C@H](O)c3cccc(Cl)c3)cc2)ccc1C(=O)O | 84 nM | 0.5 nM |  |
| CCOc1cc(-c2ccc(C[C@@H](C)NC[C@H](O)c3ccccc3)cc2)ccc1C(=O)O | 62 nM | 0.31 nM | AUC(0-t) at 2 h [21]: 350 ng·h/mL; half-life [5]: 9.9 h; Vd [6]: 1.9 L/kg; AUC(0-t) at 24 h [7]: 477 ng·h/mL; clearance [8]: 3.5 mL/min/kg; bioavailability [9]: 73% |
| CCCOc1cc(-c2ccc(NCCNC[C@H](O)c3cccc(Cl)c3)cc2)ccc1C(=O)O | 11 nM | 0.21 nM |  |
| CC(C)Cc1cc(-c2ccc(OCCNC[C@H](O)c3cccc(Cl)c3)cc2)ccc1C(=O)O | 15 nM | 0.68 nM |  |
| CC(C)Oc1cc(-c2ccc(CCNC[C@H](O)c3ccc(Cl)cc3)cc2)ccc1C(=O)O | 500 nM | 2.4 nM |  |
| O=C(O)c1ccc(-c2ccc(OCCNC[C@H](O)c3cccc(Cl)c3)cc2)cc1OC1CCCCC1 | 52 nM | 0.27 nM |  |
| CC(C)Cc1cc(-c2ccc(CCNC[C@H](O)c3cccnc3)cc2)ccc1C(=O)O | > 1000 nM | 0.26 nM |  |
| CC(C)Oc1cc(-c2ccc(CCNC[C@H](O)c3cccc(O)c3)cc2)ccc1C(=O)O | 440 nM | 0.062 nM |  |
| C[C@@H](Cc1ccc(-c2ccc(C(=O)O)cc2)cc1)NC[C@H](O)c1cccc(Cl)c1 | 12 nM | 6 nM |  |
| C[C@H](Cc1ccc(-c2ccc(C(=O)O)cc2)cc1)NC[C@H](O)c1cccc(Cl)c1 | 13 nM | 0.18 nM |  |
| CCOC(=O)COc1ccc2c(c1)C[C@@H](NC[C@H](O)c1cccc(Cl)c1)CCC2 |  |  | fraction unbound [3]: 0.06 |
| CC(C)Oc1cc(-c2ccc(C[C@@H](C)NC[C@H](O)c3cccc(Cl)c3)cc2)ccc1C(=O)O | 37 nM | 0.19 nM |  |
| CC(C)COc1cc(-c2ccc(C[C@@H](C)NC[C@H](O)c3ccccc3)cc2)ccc1C(=O)O | 130 nM | 0.041 nM | AUC(0-t) at 2 h [21]: 0.2 ng·h/mL; half-life [5]: 17.7 h; Vd [6]: 30.8 L/kg; AUC(0-t) at 24 h [7]: 44.5 ng·h/mL; clearance [8]: 39 mL/min/kg; bioavailability [9]: 0.4% |
| CCCOc1cc(-c2ccc(OCCNC[C@H](O)c3ccccc3)cc2)ccc1C(=O)O | 210 nM | 1.2 nM |  |
| CC(C)Oc1cc(-c2ccc(CC(C)(C)NC[C@H](O)c3ccccc3)cc2)ccc1C(=O)O | 280 nM | 0.91 nM |  |
| CC(C)Oc1cc(-c2ccc(CCNC[C@H](O)c3ccc(N)cc3)cc2)ccc1C(=O)O | > 1000 nM | 2.6 nM |  |
| C[C@H](Cc1ccc(-c2ccc(C(=O)O)cc2)cc1)NC[C@H](O)c1ccccc1 | 22 nM | 0.3 nM | EC50 [4]: > 1000 nM |
